≈ marks a conversion by molar mass, not a printed value.
Details: 20 °C

Compared with `CC(Cl)C(Cl)(Cl)C(O)O` (stereo not drawn), `CC(=O)OC(C)C` is 2.2-fold higher in solubility: 136 mM (≈ 26300 µg/mL) for the first, 303 mM (≈ 30900 µg/mL) for the second.

First: COC(C)=O
Second: CCCOC(C)=O
The solubility of the first is 18-fold higher: 3280 mM (≈ 243000 µg/mL) for the first, 185 mM (≈ 18900 µg/mL) for the second.

Compared with `F[P-](F)(F)(F)(F)F.N#[N+]c1ccccc1`, `C[C@H]1C[C@@H](OC(=O)c2ccccc2)CC(C)(C)N1` is 3-fold lower in solubility: 36 mM for the first, 12 mM (≈ 2960 µg/mL) for the second.

Work on `CCOC(=O)CCCCC(=O)OCC` yielded a solubility of 20.9 mM (≈ 4230 µg/mL).

Same assay, conditions: 25 °C

Going from `O=C(O)/C=C/c1ccc2c(c1)OCO2` to `O=C(O)C=Cc1cccc(Br)c1`, the solubility rises from 0.141 mM (≈ 27 µg/mL) to 2.31 mM (≈ 525 µg/mL) (16-fold).

First: O=C1c2ccc(O)cc2C(=O)c2ccc(O)cc21
Second: O=C1c2ccccc2C(=O)c2cc(O)ccc21
The solubility of the first is 3.8-fold lower: 0.00129 mM (≈ 0.31 µg/mL) for the first, 0.00491 mM (≈ 1.1 µg/mL) for the second.

Going from `CC(C)c1ccc(C(=O)O)cc1` to `O=C(O)c1ccc(I)cc1`, the solubility falls from 0.92 mM (≈ 151 µg/mL) to 0.109 mM (≈ 27 µg/mL) (8.4-fold).

Going from `CC(=O)Nc1ccc([N+](=O)[O-])cc1` to `COc1ccc(C=CC(=O)O)cc1`, the solubility falls from 12.2 mM (≈ 2200 µg/mL) to 5.15 mM (≈ 918 µg/mL) (2.4-fold).

First: CCCCCCCCC(C(=O)O)C(=O)O
Second: O=C(O)c1ccccc1Br
The solubility of the first is 7.7-fold lower: 1.2 mM (≈ 260 µg/mL) for the first, 9.23 mM (≈ 1860 µg/mL) for the second.

With `Cc1cccc(S(N)(=O)=O)c1` the solubility was 45.6 mM (≈ 7810 µg/mL).
